Laboratory results published in patent publication US12605419B2, “Flavonoid extract of Cyclocarya paliurus leaves and antibacterial drugs and/or antibacterial agents containing thereof” (priority 2020, dated 2026).
Like-named read-outs stand apart in the source and are kept apart here.

What was measured:
S. aureus ATCC25923 = experiment: Sensitivity test (MIC, broth dilution per CLSI); format: cell-based; settings: strain ATCC25923, MHB with 2% NaCl, 34° C., 24 hours, minimum concentration without colony growth
Method: (§1) By referring to the methods and standards of the American Clinical and Laboratory Standards Institute (CLSI) for antimicrobial susceptibility testing, the drug resistance of each strain was verified. The MHB medium used in this test contained 2% NaCl (w/v).
(§2) Preparation of test bacteria: each bacterium was respectively inoculated in 5 ml MHB medium, and cultured overnight at 37° C. on a shaker. The bacterial solution was adjusted to 0.5 McFarland turbidity (MCF) unit, and further diluted by 100 folds. The final bacterial concentration was 5×10^5 cfu/ml.
(§3) Preparation of the flavonoids extract of C. paliurus leaves for application: 79.8 mg powder of the flavonoid extract from C. paliurus leaves prepared in Example 1 (based on the flavonoids proportion of 67.3581 wt. % in the flavonoids extract of C. paliurus leaves, the amount of flavonoids in the powder was 53.75 mg) was dissolved in 0.32 ml of DMSO, and further diluted with 3.68 ml MHB medium, to obtain the application solution of C. paliurus leaf with a flavonoids concentration at 13.44 mg/ml. […]
(§4) Sensitivity test: 100 μl of the bacterial solution prepared above was added to the wells with serial concentration of drugs and the medium control. […] The minimum drug concentration without colony growth was determined as the minimum inhibitory concentration (MIC).

MRSA-3 = experiment: Sensitivity test (MIC, broth dilution per CLSI); format: cell-based, Methicillin-resistant S. aureus; settings: strain MRSA-3, MHB with 2% NaCl, 34° C., 24 hours, minimum concentration without colony growth
Method: as §1, §2
(§5) Preparation of the flavonoids extract of C. paliurus leaves for application: 79.8 mg powder of the flavonoid extract from C. paliurus leaves prepared in Example 1 (based on the flavonoids proportion of 67.3581 wt. % in the flavonoids extract of C. paliurus leaves, the amount of flavonoids in the powder was 53.75 mg) was dissolved in 0.32 ml of DMSO, and further diluted with 3.68 ml MHB medium, to obtain the application solution of C. paliurus leaf with a flavonoids concentration at 13.44 mg/ml.
(§6) 100 μl of medium was added into the second well, and serial 2-fold dilutions were prepared until to the ninth well. The 10th well was set as the medium control.
(§7) Sensitivity test: 100 μl of the bacterial solution prepared above was added to the wells with serial concentration of drugs and the medium control. The plate was placed in a humidified box and incubated at 34° C. for 24 hours. 20 μl of each bacterial solution was taken and diluted 50 times with the medium, then 100 μl of the diluted bacterial solution was spread on the culture plate and incubated overnight at 37° C. The minimum drug concentration without colony growth was determined as the minimum inhibitory concentration (MIC).

MRSA-2 = experiment: Sensitivity test (MIC, broth dilution per CLSI); format: cell-based, Methicillin-resistant S. aureus; settings: strain MRSA-2, MHB with 2% NaCl, 34° C., 24 hours, minimum concentration without colony growth
Method: as §1, §2, §5, §6, §7

MRSA-1 = experiment: Sensitivity test (MIC, broth dilution per CLSI); format: cell-based, Methicillin-resistant S. aureus; settings: strain MRSA-1, MHB with 2% NaCl, 34° C., 24 hours, minimum concentration without colony growth
Method: as §1, §2, §5, §6, §7

MRSA-5 = experiment: Sensitivity test (MIC, broth dilution per CLSI); format: cell-based, Methicillin-resistant S. aureus; settings: strain MRSA-5, MHB with 2% NaCl, 34° C., 24 hours, minimum concentration without colony growth
Method: as §1, §2, §5, §6, §7

MRSA strains = experiment: Sensitivity test, MRSA strains compared with ATCC25923; format: cell-based, Methicillin-resistant S. aureus; settings: each MRSA strain vs ATCC25923
Method: as §1, §2, §3, §4

MRSA-4 = experiment: Sensitivity test (MIC, broth dilution per CLSI); format: cell-based, Methicillin-resistant S. aureus; settings: Staphylococcus aureus; strain MRSA-4; MHB with 2% NaCl, 34° C., 24 hours; minimum concentration without colony growth
Method: Sensitivity test: 100 μl of the bacterial solution prepared above was added to the wells with serial concentration of drugs and the medium control. The plate was placed in a humidified box and incubated at 34° C. for 24 hours. […] The minimum drug concentration without colony growth was determined as the minimum inhibitory concentration (MIC).

[1] = Staphylococcus aureus, read-out: MIC

MIC (S. aureus ATCC25923) [µg/mL]	MIC (MRSA-3) [µg/mL]	MIC (MRSA-2) [µg/mL]	MIC (MRSA-1) [µg/mL]	MIC (MRSA-5) [µg/mL]	Structure (SMILES)	MIC (S. aureus ATCC25923; [1]) [µg/mL]	MIC (MRSA-3; [1]) [µg/mL]	MIC (MRSA-2; [1]) [µg/mL]	MIC (MRSA-1; [1]) [µg/mL]	MIC (MRSA-5; [1]) [µg/mL]	Sensitivity of each MRSA strain compared with S. aureus ATCC25923 (MRSA strains)	MIC (MRSA-4) [µg/mL]
					CC1(C)S[C@@H]2[C@H](NC(=O)Cc3ccccc3)C(=O)N2[C@H]1C(=O)O [penicillin sodium]	0.0312	1	1	4	4	lower than that of the standard strain of S. aureus ATCC25923	32
0.125	0.5	0.5	0.5	0.5	Cc1onc(-c2ccccc2)c1C(=O)N[C@@H]1C(=O)N2[C@@H]1SC(C)(C)[C@@H]2C(=O)[O-].[Na+] [oxacillin sodium]						lower than that of the standard strain of S. aureus ATCC25923	
